The results in this text go back to ChEMBL document CHEMBL5465560, “Selectivity Literature for EUbOPEN Chemogenomic Library” (2024).

Each structure is given as a SMILES string.

Experiment [1] addresses Non-receptor tyrosine-protein kinase TYK2 (Homo sapiens, UniProt P29597). Description: Selectivity interaction (KinomeScan (DiscoverX)) EUB0000695a TYK2. Conditions: at 100 nM.
In experiment [2] the target is Citron Rho-interacting kinase (Homo sapiens) (UniProt O14578). Nature of the experiment: Selectivity interaction (KinomeScan (DiscoverX)) EUB0000666a CIT. As to conditions: at 10 µM.
Experiment [3] deals with Mitogen-activated protein kinase 14 (Homo sapiens, UniProt Q16539). Description: Selectivity interaction (ActivX KiNativ screen (kinase selectivity in THP-1 cell lysates)) EUB0000639a MAPK14. The experiment is classed as subcellular. Conditions: lysate.
Sequence of Mitogen-activated protein kinase 14 (Q16539 whole entry, canonical isoform): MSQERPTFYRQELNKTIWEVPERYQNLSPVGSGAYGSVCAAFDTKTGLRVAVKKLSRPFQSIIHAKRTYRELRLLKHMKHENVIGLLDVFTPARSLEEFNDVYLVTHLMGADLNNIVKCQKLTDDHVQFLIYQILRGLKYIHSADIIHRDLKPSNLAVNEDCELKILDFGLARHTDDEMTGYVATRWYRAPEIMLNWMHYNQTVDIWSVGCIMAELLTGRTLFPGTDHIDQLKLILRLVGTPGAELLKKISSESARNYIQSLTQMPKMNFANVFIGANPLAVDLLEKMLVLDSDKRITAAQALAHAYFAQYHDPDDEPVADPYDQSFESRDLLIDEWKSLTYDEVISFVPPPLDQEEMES
For experiment [4], the target named is T1, Phosphatidylinositol 4,5-bisphosphate 3-kinase catalytic subunit delta isoform (Homo sapiens) (UniProt O00329).
T1 sequence (whole entry): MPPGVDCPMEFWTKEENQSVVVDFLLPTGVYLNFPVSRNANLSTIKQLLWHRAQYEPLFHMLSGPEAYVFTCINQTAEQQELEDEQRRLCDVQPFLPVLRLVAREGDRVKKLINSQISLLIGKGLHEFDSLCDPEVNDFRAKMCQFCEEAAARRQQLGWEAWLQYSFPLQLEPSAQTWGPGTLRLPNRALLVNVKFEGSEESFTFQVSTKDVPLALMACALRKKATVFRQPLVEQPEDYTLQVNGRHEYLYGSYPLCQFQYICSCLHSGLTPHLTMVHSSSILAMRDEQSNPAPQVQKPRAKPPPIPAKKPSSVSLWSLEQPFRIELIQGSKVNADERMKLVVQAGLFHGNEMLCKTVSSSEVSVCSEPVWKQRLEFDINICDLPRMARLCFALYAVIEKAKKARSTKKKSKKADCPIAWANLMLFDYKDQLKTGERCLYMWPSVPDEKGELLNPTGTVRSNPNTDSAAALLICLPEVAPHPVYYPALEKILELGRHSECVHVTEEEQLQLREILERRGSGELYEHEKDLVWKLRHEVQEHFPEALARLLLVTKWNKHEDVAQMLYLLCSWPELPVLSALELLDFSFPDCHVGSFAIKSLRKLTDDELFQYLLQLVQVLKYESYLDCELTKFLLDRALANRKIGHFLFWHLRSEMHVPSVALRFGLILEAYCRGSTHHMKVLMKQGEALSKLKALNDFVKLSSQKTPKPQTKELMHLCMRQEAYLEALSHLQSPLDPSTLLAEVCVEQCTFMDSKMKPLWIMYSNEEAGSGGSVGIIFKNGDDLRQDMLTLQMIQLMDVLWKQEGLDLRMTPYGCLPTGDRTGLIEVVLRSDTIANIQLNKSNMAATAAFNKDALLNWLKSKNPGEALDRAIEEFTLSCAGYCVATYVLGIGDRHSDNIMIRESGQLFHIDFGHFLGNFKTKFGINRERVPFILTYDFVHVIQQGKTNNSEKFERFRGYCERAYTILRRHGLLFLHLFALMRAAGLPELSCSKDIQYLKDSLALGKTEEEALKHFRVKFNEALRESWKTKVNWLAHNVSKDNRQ
Nature of the experiment: Selectivity interaction (ActivX KiNativ screen (kinase selectivity in THP-1 cell lysates)) EUB0000639a PIK3CD. The class given is subcellular. As to conditions: lysate, at 0.01 µM.

The target in experiment [5] is Serine/threonine-protein kinase Nek7 (Homo sapiens) (UniProt Q8TDX7). Nature of the experiment: Selectivity interaction (KinomeScan (DiscoverX)) EUB0000045b NEK7.
Sequence of Serine/threonine-protein kinase Nek7 (Homo sapiens) (Q8TDX7 whole entry, looked up): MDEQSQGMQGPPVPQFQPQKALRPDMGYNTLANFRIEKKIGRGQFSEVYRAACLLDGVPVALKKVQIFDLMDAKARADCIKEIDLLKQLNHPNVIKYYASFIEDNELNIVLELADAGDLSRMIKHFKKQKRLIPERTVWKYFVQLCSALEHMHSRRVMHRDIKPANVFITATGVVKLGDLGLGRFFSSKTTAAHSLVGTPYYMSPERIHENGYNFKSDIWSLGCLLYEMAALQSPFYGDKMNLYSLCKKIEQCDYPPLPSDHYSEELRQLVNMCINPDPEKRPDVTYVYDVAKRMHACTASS
The target of experiment [6] is Tyrosine-protein kinase Fgr (Homo sapiens) (UniProt P09769). Nature of the experiment: Selectivity interaction (ProQinase) EUB0000171b FGR.
Sequence of Tyrosine-protein kinase Fgr (Homo sapiens) (P09769 2-529 limits assumed): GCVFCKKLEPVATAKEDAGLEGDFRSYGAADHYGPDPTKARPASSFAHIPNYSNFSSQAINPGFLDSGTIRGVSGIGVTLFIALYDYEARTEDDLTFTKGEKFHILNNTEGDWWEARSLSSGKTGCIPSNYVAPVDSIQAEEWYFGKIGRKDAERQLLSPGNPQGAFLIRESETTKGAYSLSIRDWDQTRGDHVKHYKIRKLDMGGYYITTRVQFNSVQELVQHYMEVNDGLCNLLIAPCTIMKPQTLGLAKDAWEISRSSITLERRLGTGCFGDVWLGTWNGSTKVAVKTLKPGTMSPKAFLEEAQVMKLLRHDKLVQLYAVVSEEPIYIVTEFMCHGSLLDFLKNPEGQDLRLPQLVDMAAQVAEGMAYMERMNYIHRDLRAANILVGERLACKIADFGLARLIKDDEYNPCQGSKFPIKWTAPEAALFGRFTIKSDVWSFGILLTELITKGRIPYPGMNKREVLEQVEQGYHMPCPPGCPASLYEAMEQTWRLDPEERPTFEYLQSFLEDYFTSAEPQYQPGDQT
The target in experiment [7] is Serine/threonine-protein kinase pim-3 (Homo sapiens) (UniProt Q86V86). Nature of the experiment: Selectivity interaction (Ambit KINOMEscan and KiNATiv profiling in Jurkat cells) EUB0000090b PIM3. The experiment is classed as cell-based. Conditions: at 1 µM.
In experiment [8] the target is Tyrosine-protein kinase CSK (Homo sapiens) (UniProt P41240). Nature of the experiment: Selectivity interaction (KinomeScan (DiscoverX)) EUB0001049a CSK. Conditions: at 1 µM.
Sequence of Tyrosine-protein kinase CSK (Homo sapiens) (P41240 2-450 limits assumed): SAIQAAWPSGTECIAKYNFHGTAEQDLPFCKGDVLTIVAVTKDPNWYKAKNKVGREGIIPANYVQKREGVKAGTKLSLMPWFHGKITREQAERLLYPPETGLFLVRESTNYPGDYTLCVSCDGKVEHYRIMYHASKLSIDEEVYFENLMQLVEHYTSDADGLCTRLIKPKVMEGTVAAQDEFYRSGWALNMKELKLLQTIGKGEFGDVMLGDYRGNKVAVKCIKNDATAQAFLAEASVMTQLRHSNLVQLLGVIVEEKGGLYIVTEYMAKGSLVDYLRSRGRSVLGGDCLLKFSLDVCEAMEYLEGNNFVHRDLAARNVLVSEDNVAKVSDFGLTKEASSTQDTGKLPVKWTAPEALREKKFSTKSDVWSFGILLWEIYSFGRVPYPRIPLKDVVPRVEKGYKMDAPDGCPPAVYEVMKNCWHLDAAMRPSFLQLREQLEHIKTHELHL
For experiment [9], the target named is T2, Dual specificity mitogen-activated protein kinase kinase 7 (Homo sapiens) (UniProt O14733).
T2 sequence (whole entry): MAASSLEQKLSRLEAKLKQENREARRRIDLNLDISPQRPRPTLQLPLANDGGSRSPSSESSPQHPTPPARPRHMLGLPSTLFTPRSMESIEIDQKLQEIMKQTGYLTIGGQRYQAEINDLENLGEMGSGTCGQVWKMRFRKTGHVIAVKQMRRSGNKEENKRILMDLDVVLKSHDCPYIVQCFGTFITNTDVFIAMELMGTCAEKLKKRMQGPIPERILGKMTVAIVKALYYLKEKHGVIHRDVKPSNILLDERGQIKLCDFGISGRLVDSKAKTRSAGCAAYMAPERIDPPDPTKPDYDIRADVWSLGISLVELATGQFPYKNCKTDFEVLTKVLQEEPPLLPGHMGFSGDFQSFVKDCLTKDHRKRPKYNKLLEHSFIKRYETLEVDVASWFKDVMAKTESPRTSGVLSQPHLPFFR
Description: Selectivity interaction (KinomeScan (DiscoverX)) EUB0000655a MAP2K7. As to conditions: at 10 µM.

Experiment [10] has as its target Serine/threonine-protein kinase PRP4 homolog (Homo sapiens) (UniProt Q13523). Nature of the experiment: Selectivity interaction (KinomeScan (DiscoverX)) EUB0000092b PRPF4B. Conditions: at 10 µM.
For experiment [11], the system named is Fibroblast growth factor receptor 3 (Homo sapiens), P22607 [G697C]. Description: (§1) Selectivity interaction (KinomeScan (DiscoverX)) EUB0000229b FGFR3. As to conditions: at 1 µM.
Sequence of Fibroblast growth factor receptor 3 (Homo sapiens), P22607 [G697C] (P22607 whole entry G697C): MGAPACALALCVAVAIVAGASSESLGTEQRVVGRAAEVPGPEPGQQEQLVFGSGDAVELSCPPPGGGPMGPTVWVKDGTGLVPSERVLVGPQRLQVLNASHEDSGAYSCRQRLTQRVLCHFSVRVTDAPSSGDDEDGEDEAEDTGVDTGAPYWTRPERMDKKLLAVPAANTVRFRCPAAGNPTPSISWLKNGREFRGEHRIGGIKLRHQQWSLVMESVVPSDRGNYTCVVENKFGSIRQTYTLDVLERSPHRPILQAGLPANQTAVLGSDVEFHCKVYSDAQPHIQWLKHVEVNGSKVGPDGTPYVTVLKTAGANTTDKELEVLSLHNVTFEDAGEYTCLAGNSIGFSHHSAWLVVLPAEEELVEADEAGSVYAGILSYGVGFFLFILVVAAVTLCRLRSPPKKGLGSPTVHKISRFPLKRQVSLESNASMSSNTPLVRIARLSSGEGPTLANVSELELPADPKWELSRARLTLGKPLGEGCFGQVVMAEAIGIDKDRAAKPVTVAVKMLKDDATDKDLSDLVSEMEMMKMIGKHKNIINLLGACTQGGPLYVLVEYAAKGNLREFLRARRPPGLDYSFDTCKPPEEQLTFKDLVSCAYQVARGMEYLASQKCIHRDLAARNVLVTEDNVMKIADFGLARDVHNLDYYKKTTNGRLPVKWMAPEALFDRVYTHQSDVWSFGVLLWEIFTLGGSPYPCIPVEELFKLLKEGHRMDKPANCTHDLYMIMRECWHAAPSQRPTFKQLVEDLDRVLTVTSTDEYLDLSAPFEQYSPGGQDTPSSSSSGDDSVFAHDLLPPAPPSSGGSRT
Experiment [12] concerns the target Fibroblast growth factor receptor 3 (Homo sapiens, UniProt P22607). The experiment is described as §1. As to conditions: at 10 µM.

Sequence of Serine/threonine-protein kinase PRP4 homolog (Homo sapiens) (Q13523 whole entry): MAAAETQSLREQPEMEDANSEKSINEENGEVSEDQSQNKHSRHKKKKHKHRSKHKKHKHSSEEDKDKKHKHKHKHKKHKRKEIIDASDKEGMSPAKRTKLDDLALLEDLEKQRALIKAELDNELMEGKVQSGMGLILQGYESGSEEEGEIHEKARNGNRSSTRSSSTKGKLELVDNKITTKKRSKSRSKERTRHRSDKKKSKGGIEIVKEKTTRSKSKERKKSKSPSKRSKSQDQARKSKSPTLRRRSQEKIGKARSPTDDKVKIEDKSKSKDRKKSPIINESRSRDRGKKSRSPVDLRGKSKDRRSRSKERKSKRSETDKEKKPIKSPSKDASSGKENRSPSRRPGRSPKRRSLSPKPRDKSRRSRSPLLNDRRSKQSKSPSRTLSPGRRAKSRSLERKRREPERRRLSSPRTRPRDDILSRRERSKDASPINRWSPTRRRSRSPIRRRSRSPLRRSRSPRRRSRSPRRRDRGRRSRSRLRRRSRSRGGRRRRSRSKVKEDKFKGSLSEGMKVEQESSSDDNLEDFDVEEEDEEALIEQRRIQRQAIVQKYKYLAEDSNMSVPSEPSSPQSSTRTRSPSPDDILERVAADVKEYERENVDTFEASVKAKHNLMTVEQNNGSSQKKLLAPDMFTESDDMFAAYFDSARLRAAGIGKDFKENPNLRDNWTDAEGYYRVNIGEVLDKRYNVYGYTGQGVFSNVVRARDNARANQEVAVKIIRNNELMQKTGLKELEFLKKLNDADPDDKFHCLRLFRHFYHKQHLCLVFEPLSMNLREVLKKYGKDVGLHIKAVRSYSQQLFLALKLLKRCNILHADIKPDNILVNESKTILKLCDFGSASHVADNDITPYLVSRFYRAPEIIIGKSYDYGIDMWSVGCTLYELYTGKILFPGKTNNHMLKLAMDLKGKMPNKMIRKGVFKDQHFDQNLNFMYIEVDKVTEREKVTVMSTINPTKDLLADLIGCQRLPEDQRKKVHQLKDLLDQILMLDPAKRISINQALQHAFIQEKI
Sequence of Fibroblast growth factor receptor 3 (P22607 23-806 limits assumed): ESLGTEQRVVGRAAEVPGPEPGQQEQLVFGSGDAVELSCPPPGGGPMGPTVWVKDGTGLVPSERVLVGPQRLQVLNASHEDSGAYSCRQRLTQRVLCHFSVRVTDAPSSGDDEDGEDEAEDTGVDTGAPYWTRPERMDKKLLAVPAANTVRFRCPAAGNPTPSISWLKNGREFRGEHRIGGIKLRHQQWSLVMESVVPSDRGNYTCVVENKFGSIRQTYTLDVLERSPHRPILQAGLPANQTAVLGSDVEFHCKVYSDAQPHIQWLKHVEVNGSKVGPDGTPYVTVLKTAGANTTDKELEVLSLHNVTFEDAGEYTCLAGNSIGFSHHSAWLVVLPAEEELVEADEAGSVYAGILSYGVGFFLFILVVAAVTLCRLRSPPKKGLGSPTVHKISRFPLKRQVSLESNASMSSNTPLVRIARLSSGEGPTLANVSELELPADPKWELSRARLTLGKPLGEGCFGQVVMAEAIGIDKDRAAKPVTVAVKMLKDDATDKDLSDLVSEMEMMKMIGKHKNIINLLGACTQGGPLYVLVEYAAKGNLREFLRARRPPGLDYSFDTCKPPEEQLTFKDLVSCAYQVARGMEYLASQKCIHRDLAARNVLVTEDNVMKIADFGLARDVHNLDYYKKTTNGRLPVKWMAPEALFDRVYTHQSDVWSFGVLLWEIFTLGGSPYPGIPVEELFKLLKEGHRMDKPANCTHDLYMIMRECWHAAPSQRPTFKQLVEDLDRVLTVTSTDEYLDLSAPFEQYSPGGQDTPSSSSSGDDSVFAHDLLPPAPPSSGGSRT

Molecule `Cc1cc(F)c(C(=O)Nc2cccc(-c3nncn3C(C)C)n2)cc1-n1cnc(C2CC2)c1` gave a % of control in experiment [1] of 73%.

`O=C(NOC[C@H](O)CO)c1ccc(F)c(F)c1Nc1ccc(I)cc1F` registered a % of control in [2] of 100%.

On to `CC[C@@H]1[C@H](F)C(=O)N[C@@H]1COc1nccc2cc(C(N)=O)c(OC)cc12` [ZIMLOVISERTIB], for which the % of inhibition in experiment [3] (at 0.01 µM) is 0.8%; in experiment [3] (at 0.04 µM), 1.1%; in [3] (at 0.2 µM) it was 10.2%; in [3] (at 1 µM), 10.6%; in experiment [3] (at 5 µM), 4.8%; in [4], -9.6%.

Take `C=CC(=O)Nc1cc(-n2c(=O)ccc3cnc4ccc(-c5ccc(NS(C)(=O)=O)cc5)cc4c32)ccc1C`: the % of control turned out to be 100% in experiment [5] (at 1 µM) and 71% in experiment [5] (at 10 µM).

For the molecule `C=CC(=O)Nc1cccc(C(=O)Nc2ccc(Nc3cc(-c4[nH]c(SC)nc4C)ccn3)cc2)c1`, the % of control in experiment [6] (at 1 µM) was 87%; in [6] (at 5 µM) it was 79%.

For the molecule `CN(C)C/C=C/C(=O)Nc1ccc(C(=O)N2CCCC(Nc3ncc(Cl)c(-c4c[nH]c5ccccc45)n3)C2)cc1` (stereo not drawn), the % of control in experiment [7] worked out at 99%.

The molecule `COc1cc(Nc2nc(C)cc(-c3cnn4nc(OC)ccc34)n2)cc(C(F)(F)F)c1` displayed a % of control in [8] of 59%.

As to `CN(C)CCOc1ccc(-c2nc(-c3ccncc3)c(-c3ccc4c(c3)CC/C4=N\O)[nH]2)cc1`, in [9], the % of control worked out at 94%.

The molecule `CCC(=O)N1CCN(c2ccc(-n3c(=O)ccc4cnc5ccc(-c6cnc7ccccc7c6)cc5c43)cc2C(F)(F)F)CC1` yielded a % of control in experiment [10] of 100%.

Consider `COc1cc(N(C)c2ccnc3ccc(C(F)(F)F)cc23)cc(OC)c1OC`, for which the % binding in [11] stood at 90%; in [12], 100%.
